TGI and GI50 data for 10 molecules are collected here from PubChem BioAssay (NCI).

Values joined by “and” are separate entries in the source; they are usually repeats but may differ in a detail not shown here. Equal values may be shown once.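 All cell lines were grown in 96-well plates and treated with compound for 48 hours. Here, GI50 denotes the concentration required for 50% inhibition of growth. TGI denotes the concentration required for complete inhibition of growth.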

What all share (assay): NCI-60 cell line screen, 48 h
Experiment [1] relates to NCI-H460 lung.
Experiment [2] concerns OVCAR-5 ovarian.
Experiment [3] concerns SW-620 colon.
In experiment [4] the test system is NCI-H23 lung.
For experiment [5], the system named is OVCAR-3 ovarian.
In experiment [6] the test system is SK-MEL-5 melanoma.
Experiment [7] has as its system HS 578T breast.
For experiment [8], the system named is SF-539 CNS.
The subject of experiment [9] is NCI-H226 lung.
Experiment [10] concerns MALME-3M melanoma.

For the molecule `CN(CC(=O)O)c1ccc(/C=C/c2ccnc3ccccc23)cc1`, the TGI was 67.1 µM in [1]; 94 µM in [2]; above 100 µM in [3]; above 100 µM in experiment [4]; above 100 µM in experiment [5]; 31.7 µM in [6]. Moreover, the TGI in experiment [7] was 75 µM; in experiment [8], above 100 µM.

`COc1ccc(-c2cnnn2-c2cc(OC)c3c(c2)OCO3)cc1`: the GI50 in experiment [1] is 0.0728 µM; in experiment [2], 0.502 µM; in experiment [3], 0.0531 µM; in experiment [4], 0.286 µM; in experiment [5], 0.0547 µM; in experiment [6], 0.185 µM. Besides, the GI50 in experiment [9] is 5.71 µM; in [7] it was 0.186 µM; in experiment [8] it was 0.116 µM. In addition, the TGI is above 29.2 µM in [1]; above 100 µM in [2]; above 100 µM in experiment [3]; above 100 µM in [4]; 0.437 µM in experiment [5]; 7.33 µM in [6]. The TGI is above 100 µM in [9], above 100 µM in [7] and 0.411 µM in experiment [8].

In the case of `COC(C(=O)C(O)C(C)O)C1Cc2cc3cc(OC4CC(OC(C)=O)C(OC5CC(O)C(OC)C(C)O5)C(C)O4)cc(O)c3c(O)c2C(=O)C1OC1CC(OC2CC(OC3CC(C)(O)C(OC(=O)C(C)C)C(C)O3)C(O)C(C)O2)C(O)C(C)O1` (stereo unspecified), the GI50 was 0.0261 µM and 0.0113 µM and 0.00305 µM in [1]; 0.0094 µM and 0.00174 µM in [6]; 0.000553 µM in [8]. In addition, the TGI in [3] was 3.98 µM and 2.22 µM; in [9], 0.148 µM and 0.0893 µM; in experiment [7], 0.175 µM.

For the molecule `COC(=O)C1C2C=CC(C2)C1(C(=O)OC)S(=O)CC12CCC(CC1O)C2(C)C` (stereo unspecified), the TGI in [1] is above 100 µM; in [2], above 100 µM; in experiment [3], 37.6 µM; in experiment [4], above 100 µM; in experiment [5] it was above 100 µM; in experiment [6], above 100 µM. The TGI in experiment [10], in [9] and in experiment [8] was above 100 µM in each case.

For `COc1ccc(C(Cc2cc(OC)c(OC)c(OC)c2)C(=O)O)cc1` (stereo unspecified), the TGI is above 100 µM in [1]; above 100 µM in [2]; above 100 µM in experiment [3]; above 100 µM in experiment [4]; 84.7 µM in experiment [5]; above 100 µM in experiment [6]. The TGI in [10], in experiment [9] and in experiment [8] was above 100 µM in each case.

As for `O=C1Nc2ccccc2C1Cc1ccc([N+](=O)[O-])cc1` (stereo unspecified), the TGI in experiment [1], in experiment [2], in experiment [3], in experiment [4], in [5] and in experiment [6] was above 100 µM throughout. The TGI in experiment [9] and in experiment [7] was above 100 µM throughout.

With `Cc1ccc(S(=O)(=O)NNC(=O)c2sc(-c3nc(C)c(C(=O)NNS(=O)(=O)c4ccc(C)cc4)s3)nc2C)cc1`, the TGI in experiment [1], in experiment [2], in [3], in experiment [4], in experiment [5] and in experiment [6] was above 100 µM throughout. Also, the TGI in experiment [10], in experiment [9] and in experiment [8] was above 100 µM in each case.

As for `N#Cc1cccc(C(=O)Nc2cccc(NC(=O)c3cccc(C#N)c3)c2)c1`, the GI50 is 42.8 µM in [1]; above 100 µM in experiment [2]; above 100 µM in experiment [3]; 89 µM in experiment [4]; 29.2 µM in [6]; 49.1 µM in experiment [9]. Besides, the GI50 in experiment [7] is 39 µM; in experiment [8], 57.7 µM. Also, the TGI in experiment [1], in [2], in experiment [3], in experiment [4], in [6] and in experiment [9] was above 100 µM throughout. Moreover, the TGI in experiment [7] and in experiment [8] was above 100 µM in each case.

Consider `CC(/C(=N/NC(=O)C(N)=O)c1c(Cl)ccc(Cl)c1O)C1(O)C(=O)Nc2ccccc21` (stereo unspecified), for which the TGI was 78.9 µM in experiment [1]; above 100 µM in [2]; above 100 µM in experiment [3]; above 100 µM in experiment [4]; above 100 µM in experiment [5]; above 100 µM in experiment [6]. The TGI in experiment [10], in [9] and in experiment [8] was above 100 µM each time.

`CC1CC(c2cccc3c2OCO3)=Nc2ccccc2S1` (stereo unspecified): the TGI in [1], in experiment [2], in experiment [3], in experiment [4], in experiment [5] and in experiment [6] was above 100 µM in each case. In addition, the TGI in experiment [10], in experiment [9] and in experiment [8] was above 100 µM throughout.
